Where a name gives a salt, the structure may show the parent alone.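 Exposure lasted 48 hours, with cells grown in 96-well plates and compounds tested at five concentrations. At the GI50, growth is halved.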 The source made the active and inactive calls. Cut-off read from the data, not from the text of the source: active = GI50 up to about 1.1 µM and inactive = higher.
Experiments:
Assay in all cases: growth of human tumour cells (NCI), 48 h
OVCAR-4 = test system: OVCAR-4
OVCAR-8 = test system: OVCAR-8
SF-295 = test system: SF-295
OVCAR-3 = test system: OVCAR-3
SNB-19 = test system: SNB-19
SR = test system: SR
NCI-H522 = test system: NCI-H522
HOP-62 = test system: HOP-62
ACHN = test system: ACHN
MDA-MB-435 = test system: MDA-MB-435
TK-10 = test system: TK-10
U-251 = test system: U-251
OVCAR-5 = test system: OVCAR-5
UACC-257 = test system: UACC-257
EKVX = test system: EKVX
DU-145 = test system: DU-145
COLO 205 = test system: COLO 205
SW-620 = test system: SW-620
UO-31 = test system: UO-31
MDA-MB-231 = test system: MDA-MB-231

Row | SMILES | GI50 (OVCAR-4) | GI50 (OVCAR-8) | GI50 (SF-295) | GI50 (OVCAR-3) | GI50 (SNB-19) | GI50 (SR) | GI50 (NCI-H522) | GI50 (HOP-62) | GI50 (ACHN) | GI50 (MDA-MB-435) | GI50 (TK-10) | GI50 (U-251) | GI50 (OVCAR-5) | GI50 (UACC-257) | GI50 (EKVX) | GI50 (DU-145) | GI50 (COLO 205) | GI50 (SW-620) | GI50 (UO-31) | GI50 (MDA-MB-231)
1 | CC(C)C[C@H]1C(=O)N2CCC[C@H]2[C@]2(O)O[C@](NC(=O)[C@@H]3C=C4c5cccc6[nH]c(Br)c(c56)C[C@H]4N(C)C3)(C(C)C)C(=O)N12 [BROMOCRIPTINE MESYLATE] | > 100 µM (inactive) | > 100 µM (inactive) | 39.8 µM (inactive) | 8.87 µM (inactive) | > 100 µM (inactive) | 6.11 µM (inactive) | 34 µM (inactive) | > 100 µM (inactive) | 13 µM (inactive) | 38.2 µM (inactive) | 15.1 µM (inactive) | 35.8 µM (inactive) | > 100 µM (inactive) | 49.5 µM (inactive) | 4.74 µM (inactive) | > 100 µM (inactive) | 5.27 µM (inactive) | 72.6 µM (inactive) | 4.61 µM (inactive) | > 100 µM (inactive)
2 | Cc1ccc(S(=O)(=O)N2CCN(CCN(C)CCN3CCN(S(=O)(=O)c4ccc(C)cc4)CC3)CC2)cc1 | 19.5 µM (inactive) | 17.4 µM (inactive) | 17.9 µM (inactive) | 16.7 µM (inactive) | 26.2 µM (inactive) | 18.5 µM (inactive) | 19.8 µM (inactive) | 17.8 µM (inactive) | 17.9 µM (inactive) | 17.7 µM (inactive) | 16.1 µM (inactive) | 17.3 µM (inactive) | 28.5 µM (inactive) | 16.4 µM (inactive) | 22.5 µM (inactive) | 16 µM (inactive) | 18.2 µM (inactive) | 16.9 µM (inactive) | 13.9 µM (inactive) | 20.6 µM (inactive)
3 | CCCCCCOc1ccc(NC2=C(Cl)C(=O)c3c(O)ccc(O)c3C2=O)cc1 | 4.14 µM (inactive) | 2.09 µM (inactive) | 5.81 µM (inactive) | 2.02 µM (inactive) | 3.15 µM (inactive) | 1.94 µM (inactive) | 2.15 µM (inactive) | 1.77 µM (inactive) | 3.16 µM (inactive) | 1.72 µM (inactive) | 6.32 µM (inactive) | 2.32 µM (inactive) | > 10 µM (inactive) | 3.85 µM (inactive) | > 10 µM (inactive) | 5.9 µM (inactive) | 1.78 µM (inactive) | 2.2 µM (inactive) | 2.2 µM (inactive) | 1.86 µM (inactive)
4 | CC(=O)[C@H]1[C@@H](OCc2ccccc2)O[N+]([O-])=C(C)[C@@H]1c1ccccc1 | 47.1 µM (inactive) | 30.4 µM (inactive) | 75.2 µM (inactive) | 24.7 µM (inactive) | 97.3 µM (inactive) | 19.2 µM (inactive) | 13.1 µM (inactive) | > 100 µM (inactive) | 26.4 µM (inactive) | 45 µM (inactive) | 56.1 µM (inactive) | 44.5 µM (inactive) | > 100 µM (inactive) | 34.7 µM (inactive) | 53.3 µM (inactive) | 43.8 µM (inactive) | 42.7 µM (inactive) | 17.4 µM (inactive) | 20.8 µM (inactive) | 34.6 µM (inactive)
5 | Cc1c(C)c(CC(=O)N2CC2)c(C)c(C)c1CC(=O)N1CC1 | 19.1 µM (inactive) | 10.2 µM (inactive) | 3.4 µM (inactive) | 19.5 µM (inactive) | 10.6 µM (inactive) | 0.33 µM (active) | 9.02 µM (inactive) | 5.21 µM (inactive) | 1.43 µM (inactive) | 16 µM (inactive) | 25.9 µM (inactive) | 5.56 µM (inactive) | 25.7 µM (inactive) | 17.6 µM (inactive) | 23.2 µM (inactive) | 2.1 µM (inactive) | 14.7 µM (inactive) | 14.5 µM (inactive) | 13.5 µM (inactive) | 19.2 µM (inactive)
6 | O=C1c2c(Br)sc(Br)c2[C@@H](O)[C@H]1O | 14.1 µM (inactive) | 14.1 µM (inactive) | 18.1 µM (inactive) | 2.24 µM (inactive) | 19.5 µM (inactive) | 1.96 µM (inactive) | 1.82 µM (inactive) | 16.9 µM (inactive) | 18 µM (inactive) | 10.7 µM (inactive) | 53.7 µM (inactive) | 7.48 µM (inactive) | 19.9 µM (inactive) | 15.1 µM (inactive) | 16.7 µM (inactive) | 16.4 µM (inactive) | 14.3 µM (inactive) | 3.28 µM (inactive) | 17.1 µM (inactive) | 16.6 µM (inactive)
7 | CC(C)(O)CCC(O)C(C)(O)C1CCC2(O)C3=CC(=O)C4(O)CC(O)C(O)CC4(C)C3CCC12C.CC(C)(O)CCC(O)C(C)(O)C1CCC2(O)C3=CC(=O)C4CC(O)C(O)CC4(C)C3CCC12C (stereo not given) | > 100 µM (inactive) | > 100 µM (inactive) | > 100 µM (inactive) | > 100 µM (inactive) | > 100 µM (inactive) | > 100 µM (inactive) | > 100 µM (inactive) | > 100 µM (inactive) | > 100 µM (inactive) | > 100 µM (inactive) | > 100 µM (inactive) | > 100 µM (inactive) | > 100 µM (inactive) | > 100 µM (inactive) | > 100 µM (inactive) | > 100 µM (inactive) | > 100 µM (inactive) | > 100 µM (inactive) | > 100 µM (inactive) | > 100 µM (inactive)
8 | O=c1[nH]c(=O)n(C2CC(O)C(CO)O2)c2nc3ccc4cc5ccccc5cc4c3nc12 (stereo not given) | 80.7 µM (inactive) | > 100 µM (inactive) | > 100 µM (inactive) | > 100 µM (inactive) | > 100 µM (inactive) | 69.5 µM (inactive) | > 100 µM (inactive) | > 100 µM (inactive) | > 100 µM (inactive) | > 100 µM (inactive) | > 100 µM (inactive) | > 100 µM (inactive) | > 100 µM (inactive) | > 100 µM (inactive) | > 100 µM (inactive) | > 100 µM (inactive) | > 100 µM (inactive) | > 100 µM (inactive) | > 100 µM (inactive) | > 100 µM (inactive)
9 | Cc1ccc(CC2(C(=O)O)Cc3ccc(C)cc3C2)cc1 (stereo not given) | > 100 µM (inactive) | > 100 µM (inactive) | 68.5 µM (inactive) | > 100 µM (inactive) | > 100 µM (inactive) | > 100 µM (inactive) | > 100 µM (inactive) | > 100 µM (inactive) | 94.4 µM (inactive) | > 100 µM (inactive) | > 100 µM (inactive) | 71.3 µM (inactive) | > 100 µM (inactive) | > 100 µM (inactive) | 55.3 µM (inactive) | > 100 µM (inactive) | 84.3 µM (inactive) | > 100 µM (inactive) | > 100 µM (inactive) | 89.1 µM (inactive)
10 | COc1c(OC(C)=O)c(OC(C)=O)cc2c1-c1ccc(SC)c(=O)cc1C(NC(C)=O)CC2 (stereo not given) | 26 µM (inactive) | 1.49 µM (inactive) | 1.45 µM (inactive) | 0.142 µM (active) | 0.42 µM (active) | 0.448 µM (active) | 0.204 µM (active) | 0.681 µM (active) | 11.6 µM (inactive) | 0.179 µM (active) | 15.3 µM (inactive) | 0.601 µM (active) | 10.1 µM (inactive) | 3.72 µM (inactive) | 36.1 µM (inactive) | 0.583 µM (active) | 1.65 µM (inactive) | 0.959 µM (active) | 71.9 µM (inactive) | 0.512 µM (active)
11 | Clc1ccc(-c2noc(CN3CCCCC3)n2)cc1 | > 100 µM (inactive) | > 100 µM (inactive) | 66.8 µM (inactive) | 67.9 µM (inactive) | > 100 µM (inactive) | 63.1 µM (inactive) | 81.1 µM (inactive) | > 100 µM (inactive) | > 100 µM (inactive) | > 100 µM (inactive) | > 100 µM (inactive) | > 100 µM (inactive) | > 100 µM (inactive) | 71 µM (inactive) | 54 µM (inactive) | > 100 µM (inactive) | 90.2 µM (inactive) | > 100 µM (inactive) | > 100 µM (inactive) | > 100 µM (inactive)
12 | CCOC(=O)C1C(c2ccc(OC)cc2)c2c(n[nH]c2O)CC1(O)OCC (stereo not given) | > 100 µM (inactive) | > 100 µM (inactive) | 44.8 µM (inactive) | > 100 µM (inactive) | > 100 µM (inactive) | > 100 µM (inactive) | > 100 µM (inactive) | > 100 µM (inactive) | > 100 µM (inactive) | > 100 µM (inactive) | > 100 µM (inactive) | > 100 µM (inactive) | > 100 µM (inactive) | > 100 µM (inactive) | > 100 µM (inactive) | > 100 µM (inactive) | > 100 µM (inactive) | > 100 µM (inactive) | > 100 µM (inactive) | > 100 µM (inactive)
13 | CC(C)(C)c1cc2c(O)c(c1)Cc1cc(C(C)(C)C)cc(c1O)Cc1cc(C(C)(C)C)cc(c1O)Cc1cc(C(C)(C)C)cc(c1O)Cc1cc(C(C)(C)C)cc(c1O)Cc1cc(C(C)(C)C)cc(c1O)Cc1cc(C(C)(C)C)cc(c1O)Cc1cc(C(C)(C)C)cc(c1O)C2 | > 50 µM (inactive) | > 50 µM (inactive) | > 50 µM (inactive) | > 50 µM (inactive) | > 50 µM (inactive) | > 50 µM (inactive) | > 50 µM (inactive) | > 50 µM (inactive) | > 50 µM (inactive) | > 50 µM (inactive) | > 50 µM (inactive) | > 50 µM (inactive) | > 50 µM (inactive) | > 50 µM (inactive) | > 50 µM (inactive) | > 50 µM (inactive) | > 50 µM (inactive) | > 50 µM (inactive) | > 50 µM (inactive) | > 50 µM (inactive)
